Assay results reported in US11945796B2, “Substituted pyridine derivatives as SARM1 inhibitors” (Nura Bio, Inc., priority 2020, dated 2024).

Target: T1, human SARM1(50-724) (Homo sapiens, UniProt Q6SZW1)
T1 construct: 40 nM human SARM1(50-724)
T1 sequence (Q6SZW1 50-724): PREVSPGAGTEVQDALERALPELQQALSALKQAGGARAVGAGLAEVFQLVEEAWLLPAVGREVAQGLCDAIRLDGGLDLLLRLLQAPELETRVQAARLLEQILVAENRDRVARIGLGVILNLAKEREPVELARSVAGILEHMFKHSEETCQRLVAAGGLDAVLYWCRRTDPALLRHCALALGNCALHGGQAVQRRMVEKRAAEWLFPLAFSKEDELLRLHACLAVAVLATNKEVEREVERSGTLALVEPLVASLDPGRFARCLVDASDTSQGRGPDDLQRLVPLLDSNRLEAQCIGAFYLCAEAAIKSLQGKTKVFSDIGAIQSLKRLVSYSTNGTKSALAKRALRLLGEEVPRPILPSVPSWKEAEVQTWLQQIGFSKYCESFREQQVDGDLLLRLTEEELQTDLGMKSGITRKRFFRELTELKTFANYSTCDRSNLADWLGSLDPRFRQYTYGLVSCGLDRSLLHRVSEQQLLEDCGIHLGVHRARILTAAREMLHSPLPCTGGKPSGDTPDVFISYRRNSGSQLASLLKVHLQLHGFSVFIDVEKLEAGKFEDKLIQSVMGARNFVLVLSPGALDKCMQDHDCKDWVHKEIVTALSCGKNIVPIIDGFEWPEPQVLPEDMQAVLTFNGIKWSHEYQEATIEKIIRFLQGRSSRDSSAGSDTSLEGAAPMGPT
Test: SARM1 NADase biochemical assay (HPLC peak areas of NAD and NAM)
Conditions: for Avg NAD % inhibition at 50 μM / Avg NAM % inhibition at 50 μM: 50 μM compound; for Avg NAD % inhibition at 50 μM: NAD peak area; for Avg NAM % inhibition at 50 μM: NAM peak area

Row | Substance | Avg NAD % inhibition at 50 μM | Avg NAM % inhibition at 50 μM | IC50 (dose-response, 1:3 serial dilution from 100 μM, 40 nM SARM1, 0.3 mM NMN, 20 μM NAD, 60 min rt) [nM]
1 | (S)-4-(1-(1-(2,2,2-Trifluoroethyl)-1H-pyrazol-3-yl)ethyl)pyridine and (R)-4-(1-(1-(2,2,2-Trifluoroethyl)-1H-pyrazol-3-yl)ethyl)pyridine [Example 13b] | ** (51-100%) | ** (51-100%) | –
2 | (S)—N-(2,2-Difluoroethyl)-1-(1-(pyridin-4-yl)ethyl)-1H-pyrazol-3-amine and (R)—N-(2,2-Difluoroethyl)-1-(1-(pyridin-4-yl)ethyl)-1H-pyrazol-3-amine [Example 8a] | * (% Inhibition 0-50%) | * (% Inhibition 0-50%) | –
3 | (S)—N-(2,2-Difluoroethyl)-1-(1-(pyridin-4-yl)ethyl)-1H-pyrazol-3-amine and (R)—N-(2,2-Difluoroethyl)-1-(1-(pyridin-4-yl)ethyl)-1H-pyrazol-3-amine [Example 8b] | – | – | < 1000
